Experimental data published in paper PMC12655551, “Design, Synthesis, and Evaluation of Pyrrole-Based Selective MAO-B Inhibitors with Additional AChE Inhibitory and Neuroprotective Properties Identified via Virtual Screening” (Pharmaceuticals, 2025).

Tests used:
AChE = molecular target: T1, AChE (Electrophorus electricus, UniProt O42275); assay: biochemical; format: biochemical; details: for inhibition at 200 µM: 200 µM compound; for IC50: means ± SD of three experiments
T1 construct: purchased Sigma-Aldrich, Hamburg, Germany
T1 sequence (O42275 24-633): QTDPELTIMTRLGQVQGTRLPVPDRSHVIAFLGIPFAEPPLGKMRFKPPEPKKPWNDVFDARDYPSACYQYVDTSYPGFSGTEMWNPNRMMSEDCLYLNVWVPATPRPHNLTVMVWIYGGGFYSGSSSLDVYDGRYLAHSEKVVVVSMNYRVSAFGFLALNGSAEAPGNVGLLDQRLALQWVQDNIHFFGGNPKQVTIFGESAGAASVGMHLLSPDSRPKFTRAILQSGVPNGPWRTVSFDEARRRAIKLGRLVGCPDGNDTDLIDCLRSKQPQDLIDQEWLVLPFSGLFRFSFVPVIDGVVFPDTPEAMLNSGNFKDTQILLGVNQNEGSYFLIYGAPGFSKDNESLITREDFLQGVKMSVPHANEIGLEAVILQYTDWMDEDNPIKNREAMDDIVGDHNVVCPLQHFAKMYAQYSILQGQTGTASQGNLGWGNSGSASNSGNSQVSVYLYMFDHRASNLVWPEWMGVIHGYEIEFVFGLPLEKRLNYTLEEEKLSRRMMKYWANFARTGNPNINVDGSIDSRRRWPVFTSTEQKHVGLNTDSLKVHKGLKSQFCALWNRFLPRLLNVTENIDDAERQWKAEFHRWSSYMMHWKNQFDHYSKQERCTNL
Description: (§1) AChE and BChE inhibitory activity of the newly synthesized pyrrole-based compounds was measured using the microplate assay described by Ellman et al. with the modifications added by López et al.. The compounds were tested at concentrations between 0.01 and 200 μM. First, they were dissolved in phosphate buffer (PBS) (8 mM K2HPO4, 2.3 mM NaH2PO4, 0.15 M NaCl, pH 7.5), assisted by the addition of no more than 5% MeOH. Then, they were serially diluted with PBS to provide the concentration range needed. Acetylcholinesterase from Electrophorus electricus and butyrylcholinesterase from equine serum (Sigma-Aldrich, Hamburg, Germany) were used with a substrate solution of 5,5′-dithiobis(2-nitrobenzoic acid) (DTNB) with acetylthiocholine iodide (ATCI) or butyrylthiocholine iodide (BTCI), respectively (0.04 M Na2HPO4, 0.2 mM DTNB, 0.24 mM ATCI or BTCI, pH 7.5). A total of 50 μL of AChE or BChE (0.25 U/mL, in PBS) and 50 μL of the tested compound solution were added to the wells. Incubation of the plates was performed at room temperature for 30 min. Then, 100 μL of substrate solution was added to start the enzymatic reaction. […] Enzyme activity was calculated as an inhibition percentage compared to an assay including buffer instead of an inhibitor.

BChE = molecular target: T2, BChE (Equus caballus, UniProt P81908); assay: biochemical; details: for IC50: means ± SD of three experiments, read-out: BChE IC50; for inhibition at 200 µM: read-out: Inhibition Activity 200 µM BChE
T2 construct: purchased Sigma-Aldrich, Hamburg, Germany; host or cells: equine serum
T2 sequence (P81908 whole entry): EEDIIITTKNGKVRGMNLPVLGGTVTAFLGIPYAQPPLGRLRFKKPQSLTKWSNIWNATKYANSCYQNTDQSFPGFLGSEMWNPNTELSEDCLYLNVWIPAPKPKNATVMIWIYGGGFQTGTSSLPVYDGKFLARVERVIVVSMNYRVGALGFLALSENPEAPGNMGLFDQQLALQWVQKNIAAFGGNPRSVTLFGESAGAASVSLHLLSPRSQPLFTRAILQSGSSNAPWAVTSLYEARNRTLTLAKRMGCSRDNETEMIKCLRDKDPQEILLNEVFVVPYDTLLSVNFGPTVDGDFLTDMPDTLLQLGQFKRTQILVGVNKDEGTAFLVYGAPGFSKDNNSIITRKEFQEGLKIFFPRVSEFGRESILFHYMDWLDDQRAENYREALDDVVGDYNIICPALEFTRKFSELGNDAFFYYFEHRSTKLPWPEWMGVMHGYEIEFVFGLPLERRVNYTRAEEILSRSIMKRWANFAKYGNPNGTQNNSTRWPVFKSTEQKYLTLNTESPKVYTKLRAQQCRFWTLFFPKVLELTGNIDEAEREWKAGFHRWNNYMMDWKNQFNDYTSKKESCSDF
Description: as §1

[1] = molecular target: T3, recombinant human MAO-A (hMAOA) (Homo sapiens, UniProt P21397); assay: MAO-A inhibition, fluorometric Amplex UltraRed assay; format: biochemical; details: for inhibition at 1 µM: 1 µM compound, read-out: Inhibition Activity 1 µM MAO-A; for IC50: means ± SD of three experiments, read-out: MAO-A IC50
T3 sequence (P21397 1-527): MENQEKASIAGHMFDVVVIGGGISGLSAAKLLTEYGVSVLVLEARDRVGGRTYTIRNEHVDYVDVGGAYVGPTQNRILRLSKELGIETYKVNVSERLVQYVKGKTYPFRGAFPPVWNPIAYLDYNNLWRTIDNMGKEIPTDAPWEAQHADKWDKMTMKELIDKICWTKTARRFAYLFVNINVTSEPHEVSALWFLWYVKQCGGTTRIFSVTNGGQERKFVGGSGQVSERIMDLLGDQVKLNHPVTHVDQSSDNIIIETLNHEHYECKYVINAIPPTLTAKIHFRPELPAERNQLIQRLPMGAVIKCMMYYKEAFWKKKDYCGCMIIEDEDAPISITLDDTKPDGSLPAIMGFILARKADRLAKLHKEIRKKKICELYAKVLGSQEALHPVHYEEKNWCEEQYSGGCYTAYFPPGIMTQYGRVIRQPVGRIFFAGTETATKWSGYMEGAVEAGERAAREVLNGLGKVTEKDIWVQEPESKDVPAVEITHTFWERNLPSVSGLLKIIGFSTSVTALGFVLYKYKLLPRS
Description: (§2) Monoamine oxidase (MAO) activity for both recombinant human MAO-A (hMAOA) and MAO-B (hMAOB) was assessed using a fluorometric assay based on the Amplex® UltraRed reagent. This method, originally reported by Bautista-Aguilera et al. and later adapted with minor changes by Kasabova-Angelova et al., detects hydrogen peroxide or peroxidase activity present in enzymes or biological samples. In this assay, Amplex® Red reacts in a 1:1 molar ratio with hydrogen peroxide in the presence of peroxidase, producing the red-fluorescent compound resorufin. Due to resorufin’s strong extinction coefficient (58,000 ± 5000 cm^−1·M^−1), measurements could be accurately taken using either fluorometric or spectrophotometric methods. […] The control conditions included the use of purified hMAOA or hMAOB in reaction buffer, enzyme solutions with hydrogen peroxide, and buffer alone. All the test compounds were initially prepared at a 1 µM final concentration. These compounds were combined with either hMAOA or hMAOB and loaded into a 96-well plate (with eight replicates per test compound), followed by incubation for 30 min at 37 °C in the dark. Subsequently, a 50 µL detection mix was added to each well. This mix contained Amplex® Red, horseradish peroxidase (HRP), and tyramine substrate, all prepared in a reaction buffer. As this enzymatic reaction proceeded continuously, the fluorescence signal was recorded every 30 min (at 0, 30, 60, 90, 120, and 150 min) to track enzymatic kinetics.

[2] = molecular target: T4, recombinant human MAO-B (hMAOB) (Homo sapiens, UniProt P27338); assay: biochemical; format: biochemical; details: for inhibition at 1 µM: 1 µM compound
T4 sequence (P27338 1-520): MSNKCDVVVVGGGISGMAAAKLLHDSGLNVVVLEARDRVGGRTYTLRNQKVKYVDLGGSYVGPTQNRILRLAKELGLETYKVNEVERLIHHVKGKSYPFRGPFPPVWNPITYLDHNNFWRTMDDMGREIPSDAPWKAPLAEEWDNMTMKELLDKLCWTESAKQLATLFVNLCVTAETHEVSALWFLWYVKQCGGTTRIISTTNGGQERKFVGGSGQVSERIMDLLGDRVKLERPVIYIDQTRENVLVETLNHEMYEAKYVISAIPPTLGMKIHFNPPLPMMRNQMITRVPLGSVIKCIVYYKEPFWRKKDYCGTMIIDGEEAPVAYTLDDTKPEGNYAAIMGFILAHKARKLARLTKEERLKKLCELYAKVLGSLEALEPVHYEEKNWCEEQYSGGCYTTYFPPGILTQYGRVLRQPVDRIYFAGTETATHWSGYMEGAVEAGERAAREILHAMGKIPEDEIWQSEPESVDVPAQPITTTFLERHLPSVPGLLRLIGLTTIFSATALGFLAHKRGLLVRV
Description: as §2

[3] = test system: isolated rat brain synaptosomes; assay: 6-OHDA-induced neurotoxicity in isolated rat brain synaptosomes; format: cell-based; details: 150 μM, vs non-treated synaptosomes
Description: (§3) Two types of buffers were used for the isolation of the rat brain synaptosomes and mitochondria. Buffer A was 5 mM HEPES and 0.32 M Sucrose; Buffer B was 290 mM NaCl, 0.95 mM MgCl2 × 2H2O, 10 mM KCl, 2.4 mM CaCl2 × 2H2O, 2.1 mM NaH2PO4, 44 mM HEPES, 13 mM D-Glucose. For the gradient centrifugation, Percoll reagent was used. A stock solution of 90% Percoll was used to prepare 16%, 10% and 7.5% solutions. All the solutions were used as described below. Immediately after harvesting, synaptosomes, microsomes, and mitochondria were incubated with the exam compounds for 1 h. For assessing the possible neurotoxicity of the most MAOB active compounds, the sub-cellular fractions were incubated with 100 µM of them, and for evaluating their possible neuroprotective and antioxidant activities in different models of neurotoxicity, the sub-cellular fractions were incubated with 50µM of them. The protein measurement of all the sub-cellular fractions was made by the method of Lowry et al., 1951 [57].
The synaptosomes were prepared from rat brains by multiple sub-cellular fractionation using a Percoll gradient.
This in vitro model resembles the neurodegenerative processes occurring in PD. Dopamine metabolism and oxidation led to the formation of reactive oxygen species (ROS) and reactive quinones. These processes were catalyzed by the MAOB enzyme. They induced dopamine neurotoxicity and neurodegeneration. The synaptosomes were incubated with 150 μM 6-OHDA for 1 h.
After the incubation, the synaptosomes were centrifuged three times at 15,000× g for 1 min. MTT-test was performed to determine synaptosomal vitality by the method described by Mungarro-Menchaca et al..
The level of GSH was determined by measuring the non-protein SH-groups after precipitation of the proteins with trichloroacetic acid (TCA). The presence of thiols in the supernatant was determined using Elmman’s reagent. The resulting yellow color was measured spectrophotometrically (λ = 412 nm).

[4] = test system: isolated rat brain mitochondria; assay: t-BuOOH-induced oxidative stress in isolated rat brain mitochondria; format: cell-based; details: 75 μM, vs non-treated mitochondria
Description: as §3
The mitochondria were prepared by multiple differential fractionation using a Percoll gradient.
The mitochondria were incubated with 75 μM t-BuOOH [57].
After incubation of the mitochondria, 0.3 mL 0.2% TBA and 0.25 mL sulfuric acid (0.05 M) were added to stop the reaction. The tubes were maintained at 100 °C for 30 min. In the next stage, centrifugation of the tubes was carried out at 3500× g for 10 min. Assessment of the total quantity of MDA formed in each sample was measured in the supernatant at 532 nm.
After incubation of mitochondria, 0.04% DTNB was mixed with the mitochondrial suspensions in 0.1 M phosphate buffer (pH 7.4). The absorbance of the yellow product was measured at 412 nm.

[5] = means ± SD of three experiments

| SMILES | inhibition at 200 µM (AChE) [%] | IC50 (AChE) [µM] | IC50 (BChE) [µM] | inhibition at 200 µM (BChE) [%] | inhibition at 1 µM [1] [%] | IC50 [1] [µM] | inhibition at 1 µM [2] [%] | IC50 [2, 5] [µM] | decrease of GSH level by the toxic agent alone [3] [%] | decrease of synaptosomal viability by the toxic agent alone [3] [%] | decrease of GSH level by the toxic agent alone [4] [%] | increase of MDA production by the toxic agent alone [4] [%] | MAO-B IC50 [2, 5] |
| --- | --- | --- | --- | --- | --- | --- | --- | --- | --- | --- | --- | --- | --- |
| Cc1ccc(C)n1CCc1ccc(O)cc1 [EM-DC-9, 4-[2-(2,5-dimethyl-1H-pyrrol-1-yl)ethyl]phenol] | 72.9 ± 3.02 | 76.8 ± 4.68 | 69.5 ± 7.52 | 73.7 ± 4.5 | 98 ± 6.8 | > 100 | 98 ± 7.1 | > 100 |  |  |  |  |  |
| Cc1ccc(C)n1C(Cc1ccc(O)cc1)C(=O)O (centres unmarked) [EM-DC-20, 2-(2,5-dimethyl-1H-pyrrol-1-yl)-3-(4-hydroxyphenyl)propanoic acid] | 0 | > 200 | > 200 | 0 | 75 ± 6.4 | 0.6 ± 0.1 | 75 ± 7.1 | 0.62 ± 0.1 |  |  |  |  |  |
| Cc1ccc(C)n1CCc1ccc(Cl)cc1 [EM-DC-8, 1-[2-(4-chlorophenyl)ethyl]-2,5-dimethyl-1H-pyrrole] | 31.1 ± 2.48 | > 200 | > 200 | 35.4 ± 2.91 | 99 ± 7.3 | > 100 | 99 ± 7.1 | > 100 |  |  |  |  |  |
| NCCc1cc(O)c(O)cc1O [Compound 6-OHDA, 6-hydroxydopamine, reference compound] |  |  |  |  |  |  |  |  | 50 | 50 |  |  |  |
| CC(C)(C)OO [t-BuOOH, tert-butyl hydroperoxide, reference compound] |  |  |  |  |  |  |  |  |  |  | 50 | 150 |  |
| Cc1ccc(C)n1-c1ccccc1Br [EM-DC-3, 1-(2-bromophenyl)-2,5-dimethyl-1H-pyrrole] | 8.32 ± 2.64 | > 200 | > 200 | 0.04 ± 9.01 | 70 ± 7.2 | 0.52 ± 0.1 | 75 ± 7.1 | 0.56 ± 0.1 |  |  |  |  |  |
| Cc1ccc(C)n1-c1ccc(Br)cc1 [EM-DC-4, 1-(4-bromophenyl)-2,5-dimethyl-1H-pyrrole] | 1.4 ± 0.38 | > 200 | > 200 | 0 | 60 ± 6.8 | 0.32 ± 0.1 | 98 ± 7.1 | > 100 |  |  |  |  |  |
| Cc1ccc(C)n1C(CS)C(=O)O (centres unmarked) [EM-DC-15, 2-(2,5-dimethyl-1H-pyrrol-1-yl)-3-sulfanylpropanoic acid] | 63.9 ± 1.29 | 131 ± 1.85 | > 200 | 19.1 ± 2.47 | 70 ± 7.2 | 0.55 ± 0.1 | 70 ± 7.1 | 0.53 ± 0.1 |  |  |  |  |  |
| Cc1ccc(C)n1-c1ccncc1 [EM-DC-12, 4-(2,5-dimethyl-1H-pyrrol-1-yl)pyridine] | 65.7 ± 3.25 | 103 ± 5.85 | 72.8 ± 2.53 | 73.2 ± 1.8 | 70 ± 6.9 | 0.49 ± 0.1 | 70 ± 7.1 | 0.51 ± 0.1 |  |  |  |  | submicromolar range |
| Cc1ccc(C)n1CC(O)c1ccc(O)cc1 (centres unmarked) [EM-DC-10, 4-[2-(2,5-dimethyl-1H-pyrrol-1-yl)-1-hydroxyethyl]phenol] | 60.4 ± 1.05 | 148 ± 5.91 | 11.3 ± 0.87 | 87.2 ± 1.6 | 99 ± 6.8 | > 100 | 99 ± 7.1 | > 100 |  |  |  |  |  |
| Cc1ccc(C)n1C(C)(C)CO [EM-DC-14, 2-(2,5-dimethyl-1H-pyrrol-1-yl)-2-methylpropan-1-ol] | 33.2 ± 2.03 | > 200 | > 200 | 0 | 75 ± 7.1 | 0.44 ± 0.1 | 75 ± 7.1 | 0.46 ± 0.1 |  |  |  |  |  |
